Test results taken from patent US5969017A, “Methods of treating or preventing cardiac arrhythmia” (Merck & Co., Inc., priority 1997, dated 1999).

What was measured:
Format in all cases: cell-based
IKs = molecular target: T1, IKs (Cavia porcellus, UniProt O70344); experiment: Voltage clamp block of IKs in guinea pig ventricular myocytes; conditions: guinea pig ventricle
T1 construct: Guinea pig ventricular myocytes were isolated; endogenous in cells; host or cells: isolated guinea pig ventricular myocytes
T1 sequence (O70344 whole entry): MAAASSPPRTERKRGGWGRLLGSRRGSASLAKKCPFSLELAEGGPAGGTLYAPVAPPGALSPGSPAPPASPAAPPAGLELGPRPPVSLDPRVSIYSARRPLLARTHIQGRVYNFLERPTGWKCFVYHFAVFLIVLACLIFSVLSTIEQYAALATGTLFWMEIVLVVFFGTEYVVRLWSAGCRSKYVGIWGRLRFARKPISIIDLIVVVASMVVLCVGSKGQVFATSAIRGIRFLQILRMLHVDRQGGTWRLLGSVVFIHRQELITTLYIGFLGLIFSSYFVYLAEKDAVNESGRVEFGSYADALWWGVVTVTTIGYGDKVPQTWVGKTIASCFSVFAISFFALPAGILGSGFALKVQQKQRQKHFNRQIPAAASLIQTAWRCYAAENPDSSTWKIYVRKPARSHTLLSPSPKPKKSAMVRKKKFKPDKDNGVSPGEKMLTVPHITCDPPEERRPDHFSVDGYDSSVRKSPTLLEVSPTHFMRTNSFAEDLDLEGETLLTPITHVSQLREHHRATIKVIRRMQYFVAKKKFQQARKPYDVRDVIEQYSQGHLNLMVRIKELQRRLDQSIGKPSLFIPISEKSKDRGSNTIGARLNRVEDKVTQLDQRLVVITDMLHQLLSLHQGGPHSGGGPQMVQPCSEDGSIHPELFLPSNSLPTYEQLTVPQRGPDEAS
T1 sequence (Q60409 whole entry partner): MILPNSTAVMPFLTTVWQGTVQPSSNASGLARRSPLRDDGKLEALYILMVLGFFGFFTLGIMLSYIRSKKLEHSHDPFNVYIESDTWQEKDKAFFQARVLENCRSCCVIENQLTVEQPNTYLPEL
Description: (§1) D. Measurement of IKs IKr and IK1 in Guinea Pig Ventricular Myocytes.
(§2) Guinea pig ventricular myocytes were isolated using a modification of the procedure described by Mitra et al., Am. J. Physiol. 249:H1056-60 (1985). Excised hearts were perfused through the aorta (retrograde fashion) at a rate of 10 ml/min with oxygenated, warmed (37° C.) solutions described below. The heart was initially perfused for 7 minutes with a Tyrode's solution containing, in mM: 132 NaCl, 4 KCl, 1.2 MgCl2, 10 HEPES, 5 glucose, pH=7.2. The heart was then perfused with the same nominally Ca^2+ -free solution containing 150 units/ml Type II collagenase (Worthington) and 0.5 units/ml Type XIV protease (Sigma) for 8 minutes. This perfusate was followed by a Tyrode's solution contianing 0.2 mM CaCl2 (without enzymes) for 5 minutes. […]
(§3) The suction microelectrode technique described by Giles, W. R. and Shibata, E. F., "Voltage clamp of bull-frog cardiac pacemaker cells: a quantitative analysis of potassium currents", J. Physiol. […]
(§4) To record K^+ currents, the cells were bathed in a Ca^2+ -free Tyrode's solution containing 0.4 mM nisoldipine. […] Data was analyzed as % block from control membrane currents.
(§5) Nisoldipine was prepared as a 4 mM stock solution in polyethylne glycol 200. […] At the final concentrations used, neither polyethylene glycol 200 nor dimethyl sulfoxide had any effect on any of the measured membrane currents. […]

IKr = molecular target: T2, IKr (Cavia porcellus, UniProt O08703); experiment: Voltage clamp block of IKr in guinea pig ventricular myocytes; conditions: guinea pig ventricle
T2 construct: Guinea pig ventricular myocytes were isolated; endogenous in cells; host or cells: isolated guinea pig ventricular myocytes
T2 sequence (O08703 1-1294): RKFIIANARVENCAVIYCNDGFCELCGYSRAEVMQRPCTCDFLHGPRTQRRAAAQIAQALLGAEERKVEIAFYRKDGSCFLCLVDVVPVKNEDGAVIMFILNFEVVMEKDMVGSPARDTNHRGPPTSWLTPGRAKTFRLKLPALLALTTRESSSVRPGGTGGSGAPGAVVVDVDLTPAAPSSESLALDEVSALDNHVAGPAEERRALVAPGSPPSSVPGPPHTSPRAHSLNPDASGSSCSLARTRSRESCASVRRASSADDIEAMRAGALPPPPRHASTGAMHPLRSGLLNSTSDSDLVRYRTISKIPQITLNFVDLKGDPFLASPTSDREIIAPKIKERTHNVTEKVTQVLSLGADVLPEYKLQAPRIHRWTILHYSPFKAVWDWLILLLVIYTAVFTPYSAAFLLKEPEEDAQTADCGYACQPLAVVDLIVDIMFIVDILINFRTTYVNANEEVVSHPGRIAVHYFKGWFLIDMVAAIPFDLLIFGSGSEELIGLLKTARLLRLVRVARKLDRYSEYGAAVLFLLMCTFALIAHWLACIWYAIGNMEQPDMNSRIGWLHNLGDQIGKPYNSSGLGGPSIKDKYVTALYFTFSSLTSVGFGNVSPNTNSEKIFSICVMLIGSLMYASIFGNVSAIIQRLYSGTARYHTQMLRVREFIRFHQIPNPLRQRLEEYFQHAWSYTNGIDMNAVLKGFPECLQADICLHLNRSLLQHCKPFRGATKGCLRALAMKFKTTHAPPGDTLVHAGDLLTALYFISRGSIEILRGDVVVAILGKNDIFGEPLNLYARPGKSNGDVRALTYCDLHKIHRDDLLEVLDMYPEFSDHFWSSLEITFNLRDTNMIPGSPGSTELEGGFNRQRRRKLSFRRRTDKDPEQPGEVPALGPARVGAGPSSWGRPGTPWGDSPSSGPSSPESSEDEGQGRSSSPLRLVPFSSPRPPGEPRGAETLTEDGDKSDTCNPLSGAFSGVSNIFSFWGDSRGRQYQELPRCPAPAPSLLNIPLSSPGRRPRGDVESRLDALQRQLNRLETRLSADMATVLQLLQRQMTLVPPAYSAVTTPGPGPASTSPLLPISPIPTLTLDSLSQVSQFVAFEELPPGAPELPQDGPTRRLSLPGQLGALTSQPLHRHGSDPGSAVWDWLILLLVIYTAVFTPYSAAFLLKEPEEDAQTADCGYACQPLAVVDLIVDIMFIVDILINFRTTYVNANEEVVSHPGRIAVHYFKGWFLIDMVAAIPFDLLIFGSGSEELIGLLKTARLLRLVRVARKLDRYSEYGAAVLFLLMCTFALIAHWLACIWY
Description: as §1, §2, §3, §4, §5

IK1 = experiment: Voltage clamp block of IK1 in guinea pig ventricular myocytes; conditions: 3 μM; guinea pig ventricle
Description: as §1, §2, §3, §4, §5

- inhibition at 3 µM (IKs): 0%
SMILES: COc1ccc(-n2nc(Sc3ccc(Cl)cc3)c(C)c(C#N)c2=O)cc1 [C, 6-(4-Chlorophenylthio)-2-(4-methoxyphenyl)-5-methyl-3-oxo-2,3-dihydropyridazine-4-carbonitrile]
- inhibition at 3 µM (IKr): 8.4%
- % Block IK1 (IK1): 0%
